Measurements as given in PMC10692101, “3-(4-Hydroxy-3-methoxyphenyl) propionic acid contributes to improved hepatic lipid metabolism via GPR41” (Scientific Reports, 2023).

What was measured:
GPR41 [1] = target: T1, GPR41 (Mus musculus, UniProt Q3UFD7); assay: inhibition of forskolin-induced cAMP in doxycycline-inducible mouse GPR41 HEK293 cells; format: cell-based
T1 construct: gene Ffar3; mouse GPR41 cDNA in pcDNA5/FRT/TO, expressed in Flp-In T-Rex HEK 293 cells
T1 sequence (Q3UFD7 1-319): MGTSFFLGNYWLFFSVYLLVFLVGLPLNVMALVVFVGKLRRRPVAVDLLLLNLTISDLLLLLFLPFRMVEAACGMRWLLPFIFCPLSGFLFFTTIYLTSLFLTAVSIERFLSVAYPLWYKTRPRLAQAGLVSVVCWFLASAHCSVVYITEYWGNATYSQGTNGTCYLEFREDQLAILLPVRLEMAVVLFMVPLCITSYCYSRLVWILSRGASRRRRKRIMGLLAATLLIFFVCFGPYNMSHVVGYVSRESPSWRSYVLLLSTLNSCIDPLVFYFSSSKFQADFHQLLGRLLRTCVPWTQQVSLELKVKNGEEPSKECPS

GPR41 [2] = target: T1, GPR41; assay: inhibition of forskolin-induced cAMP in doxycycline-inducible mouse GPR41 HEK293 cells; Dox(-) controls inactive; format: cell-based

## COc1cc(/C=C/C(=O)O)ccc1O [HMCA, 4-hydroxy-3-methoxycinnamic acid]
GPR41 [1]
  EC50: 5.58 mM

## COc1cc(CCC(=O)O)ccc1O [HMPA, 3-(4-hydroxy-3-methoxyphenyl) propionic acid]
GPR41 [2]
  EC50: 2.36 mM
